Experimental data: paper PMC5218480 (PLoS ONE, 2017)

Test system: MV-4-11 cells
Test: Gene expression microarray analysis (Affymetrix PrimeView) and GSEA
Format: cell-based, human
Design: RFU PODN (11730768_x_at) / Fold change /veh PODN (11730768_x_at) / RFU LINC00158 (11744669_a_at) / Fold change /veh LINC00158 (11744669_a_at) / RFU DUSP10 (11751237_a_at) / Fold change /veh DUSP10 (11751237_a_at) / RFU ID3 (11757404_x_at) / Fold change /veh ID3 (11757404_x_at) / RFU PLEKHG5 (11737974_s_at) / Fold change /veh PLEKHG5 (11737974_s_at) / RFU LRRC4B (11730491_at) / Fold change /veh LRRC4B (11730491_at) / RFU GIMAP4 (11747438_a_at) / Fold change /veh GIMAP4 (11747438_a_at) / RFU KRT8 (11758183_x_at) / Fold change /veh KRT8 (11758183_x_at) / RFU CNN1 (11734310_a_at) / Fold change /veh CNN1 (11734310_a_at) / RFU VPS37D (11726825_at) / Fold change /veh VPS37D (11726825_at) / RFU C10orf10 (11716522_x_at) / Fold change /veh C10orf10 (11716522_x_at) / RFU KIR2DL2 /// KIR2DL4 /// KIR2DL5A /// KIR2DL5B /// KIR2DS1 /// KIR2DS2 /// KIR2DS3 /// KIR2DS4 /// KIR3DL3 /// KIR3DL3 /// KIR3DS1 (11738374_at) / Fold change /veh KIR2DL2 /// KIR2DL4 /// KIR2DL5A /// KIR2DL5B /// KIR2DS1 /// KIR2DS2 /// KIR2DS3 /// KIR2DS4 /// KIR3DL3 /// KIR3DL3 /// KIR3DS1 (11738374_at) / RFU C1QL1 (11718748_at) / Fold change /veh C1QL1 (11718748_at) / RFU TMPRSS4 (11747572_a_at) / Fold change /veh TMPRSS4 (11747572_a_at) / RFU HAMP (11756126_x_at) / Fold change /veh HAMP (11756126_x_at) / RFU RNFT2 (11725882_a_at) / Fold change /veh RNFT2 (11725882_a_at) / RFU NR4A2 (11747474_a_at) / Fold change /veh NR4A2 (11747474_a_at) / RFU ABCC12 (11746883_a_at) / Fold change /veh ABCC12 (11746883_a_at) / RFU TMEM136 (11760407_x_at) / Fold change /veh TMEM136 (11760407_x_at) / RFU CLDN22 /// WWC2 (11732394_at) / Fold change /veh CLDN22 /// WWC2 (11732394_at) / RFU HLA-DPB1 (11760878_x_at) / Fold change /veh HLA-DPB1 (11760878_x_at) / RFU SPINT1 (11716480_a_at) / Fold change /veh SPINT1 (11716480_a_at) / RFU GAP43 (11754022_s_at) / Fold change /veh GAP43 (11754022_s_at) / RFU A4GNT (11735810_at) / Fold change /veh A4GNT (11735810_at) / RFU PRB3 (11715151_x_at) / Fold change /veh PRB3 (11715151_x_at) / RFU TUBB4B (11761932_at) / Fold change /veh TUBB4B (11761932_at) / RFU CAPN14 (11732068_a_at) / Fold change /veh CAPN14 (11732068_a_at) / RFU TMCC2 (11721928_a_at) / Fold change /veh TMCC2 (11721928_a_at) / RFU IRGQ (11745062_a_at) / Fold change /veh IRGQ (11745062_a_at) / RFU FAM174B (11720279_a_at) / Fold change /veh FAM174B (11720279_a_at) / RFU TMPRSS4 (11748680_a_at) / Fold change /veh TMPRSS4 (11748680_a_at) / RFU FAM212B (11763350_a_at) / Fold change /veh FAM212B (11763350_a_at) / RFU PLEKHG5 (11743358_a_at) / Fold change /veh PLEKHG5 (11743358_a_at) / RFU ZSCAN30 (11745921_a_at) / Fold change /veh ZSCAN30 (11745921_a_at) / RFU CMKLR1 (11741424_a_at) / Fold change /veh CMKLR1 (11741424_a_at) / RFU LOC101060620 /// MAPK8IP1 (11723275_at) / Fold change /veh LOC101060620 /// MAPK8IP1 (11723275_at) / RFU SPTSSB (11747773_x_at) / Fold change /veh SPTSSB (11747773_x_at) / RFU PRSS12 (11739890_at) / Fold change /veh PRSS12 (11739890_at) / RFU BIN1 (11741810_x_at) / Fold change /veh BIN1 (11741810_x_at) / RFU WNT11 (11732464_a_at) / Fold change /veh WNT11 (11732464_a_at) / RFU C10orf10 (11716521_a_at) / Fold change /veh C10orf10 (11716521_a_at) / RFU C5orf56 (11738089_at) / Fold change /veh C5orf56 (11738089_at) / RFU CYB561 (11721691_x_at) / Fold change /veh CYB561 (11721691_x_at) / RFU ANKRD19P (11752326_a_at) / Fold change /veh ANKRD19P (11752326_a_at) / RFU OR2T12 /// OR2T33 /// OR2T8 (11738714_s_at) / Fold change /veh OR2T12 /// OR2T33 /// OR2T8 (11738714_s_at) / RFU VCAN (11748164_a_at) / Fold change /veh VCAN (11748164_a_at) / RFU JSRP1 (11732532_at) / Fold change /veh JSRP1 (11732532_at) / RFU KRTAP10-11 (11738290_x_at) / Fold change /veh KRTAP10-11 (11738290_x_at) / RFU MYO3A (11730013_a_at) / Fold change /veh MYO3A (11730013_a_at) / RFU EBF3 (11725865_a_at) / Fold change /veh EBF3 (11725865_a_at) / RFU CAMK2N1 (11719241_x_at) / Fold change /veh CAMK2N1 (11719241_x_at) / RFU C5orf56 (11738088_a_at) / Fold change /veh C5orf56 (11738088_a_at) / RFU OLFML3 (11715873_a_at) / Fold change /veh OLFML3 (11715873_a_at) / RFU LOC100653217 /// NTM (11731650_a_at) / Fold change /veh LOC100653217 /// NTM (11731650_a_at) / RFU MAPK11 (11762145_a_at) / Fold change /veh MAPK11 (11762145_a_at) / RFU FIZ1 (11724087_x_at) / Fold change /veh FIZ1 (11724087_x_at) / RFU OASL (11726364_x_at) / Fold change /veh OASL (11726364_x_at) / RFU SOX15 (11748057_x_at) / Fold change /veh SOX15 (11748057_x_at) / RFU CD79A (11719716_a_at) / Fold change /veh CD79A (11719716_a_at) / RFU HIST1H1D (11736915_at) / Fold change /veh HIST1H1D (11736915_at) / RFU CASKIN2 (11723855_a_at) / Fold change /veh CASKIN2 (11723855_a_at) / RFU LOC730098 (11760151_x_at) / Fold change /veh LOC730098 (11760151_x_at) / RFU OR4N2 (11742367_at) / Fold change /veh OR4N2 (11742367_at) / RFU PRRT2 (11749266_a_at) / Fold change /veh PRRT2 (11749266_a_at) / RFU SNX32 (11753110_a_at) / Fold change /veh SNX32 (11753110_a_at) / RFU CDHR5 (11726645_a_at) / Fold change /veh CDHR5 (11726645_a_at) / RFU RCAN1 (11760418_a_at) / Fold change /veh RCAN1 (11760418_a_at) / RFU FAM167A (11723789_a_at) / Fold change /veh FAM167A (11723789_a_at) / RFU FAM26E (11764081_at) / Fold change /veh FAM26E (11764081_at) / RFU ISYNA1 (11749810_s_at) / Fold change /veh ISYNA1 (11749810_s_at) / RFU ACY1 (11761880_at) / Fold change /veh ACY1 (11761880_at) / RFU 11764098_at / Fold change /veh 11764098_at / RFU SAMD14 (11745864_x_at) / Fold change /veh SAMD14 (11745864_x_at) / RFU NPB (11741838_a_at) / Fold change /veh NPB (11741838_a_at) / RFU TMPRSS6 (11731388_a_at) / Fold change /veh TMPRSS6 (11731388_a_at) / RFU KRTAP10-2 (11738614_at) / Fold change /veh KRTAP10-2 (11738614_at) / RFU ARHGAP8 /// PRR5-ARHGAP8 (11727945_x_at) / Fold change /veh ARHGAP8 /// PRR5-ARHGAP8 (11727945_x_at) / RFU KRTAP5-7 /// NADSYN1 (11734609_at) / Fold change /veh KRTAP5-7 /// NADSYN1 (11734609_at) / RFU RASL12 (11751679_a_at) / Fold change /veh RASL12 (11751679_a_at) / RFU CDKN2B (11736163_a_at) / Fold change /veh CDKN2B (11736163_a_at) / RFU PRF1 (11729649_at) / Fold change /veh PRF1 (11729649_at) / RFU, ZNF638 /// ZNF638-IT1 / Fold change vs veh, ZNF638 /// ZNF638-IT1 / RFU, PANK3 / Fold change vs veh, PANK3 / RFU, SH3YL1 / Fold change vs veh, SH3YL1 / RFU, ZEB2 / Fold change vs veh, ZEB2 / RFU, NRIP1 / Fold change vs veh, NRIP1 / RFU, PTTG1IP / Fold change vs veh, PTTG1IP / RFU, CAPN2 / Fold change vs veh, CAPN2 / RFU, MED14 / Fold change vs veh, MED14 / RFU, SNORA58 / Fold change vs veh, SNORA58 / RFU, C1orf63 / Fold change vs veh, C1orf63 / RFU, LRRFIP1 / Fold change vs veh, LRRFIP1 / RFU, NDUFAF7 / Fold change vs veh, NDUFAF7 / RFU, SLC12A2 / Fold change vs veh, SLC12A2 / RFU, IBTK / Fold change vs veh, IBTK / RFU, ESF1 / Fold change vs veh, ESF1 / Fold change vs veh, TMEM50B / RFU, TAOK1 / Fold change vs veh, TAOK1 / RFU, ACBD3 / Fold change vs veh, ACBD3 / RFU, TMA16 / Fold change vs veh, TMA16 / RFU, RWDD3 / Fold change vs veh, RWDD3 / RFU, BCAT1 / Fold change vs veh, BCAT1 / RFU, EDEM3 / Fold change vs veh, EDEM3 / RFU, TMEM33 / Fold change vs veh, TMEM33 / RFU, WDR75 / Fold change vs veh, WDR75 / RFU, AHCTF1 / Fold change vs veh, AHCTF1 / RFU, TFRC / Fold change vs veh, TFRC / RFU, ZDHHC17 / Fold change vs veh, ZDHHC17 / RFU, NOM1 / Fold change vs veh, NOM1 / RFU, ARL8B / Fold change vs veh, ARL8B / RFU, ZBTB11 / Fold change vs veh, ZBTB11 / RFU, TAMM41 / Fold change vs veh, TAMM41 / RFU, KIAA1704 /// LOC100996395 / Fold change vs veh, KIAA1704 /// LOC100996395 / RFU, ING1 / Fold change vs veh, ING1 / RFU, TRMT61B / Fold change vs veh, TRMT61B / RFU, FUBP3 / Fold change vs veh, FUBP3 / RFU, TP53 / Fold change vs veh, TP53 / RFU, TNKS2 / Fold change vs veh, TNKS2 / RFU, ZFP14 / Fold change vs veh, ZFP14 / RFU, ACTR2 / Fold change vs veh, ACTR2 / RFU, PPP3R1 / Fold change vs veh, PPP3R1 / RFU, PIK3R1 / Fold change vs veh, PIK3R1 / RFU, HNRNPA1 / Fold change vs veh, HNRNPA1 / RFU, RNF170 / Fold change vs veh, RNF170 / RFU, ZNF28 / Fold change vs veh, ZNF28 / RFU, RNGTT / Fold change vs veh, RNGTT / RFU, OGT / Fold change vs veh, OGT / RFU, BRD1 / Fold change vs veh, BRD1 / RFU, MARS / Fold change vs veh, MARS / RFU, ZNF655 / Fold change vs veh, ZNF655 / RFU, FAHD1 / Fold change vs veh, FAHD1 / RFU, BDP1 / Fold change vs veh, BDP1 / RFU, LRRCC1 / Fold change vs veh, LRRCC1 / RFU, ARID1A / Fold change vs veh, ARID1A / RFU, ZNF146 / Fold change vs veh, ZNF146 / RFU, ZNF330 / Fold change vs veh, ZNF330 / RFU, GPN3 / Fold change vs veh, GPN3 / RFU, C9orf123 / Fold change vs veh, C9orf123 / RFU, N4BP2L2 / Fold change vs veh, N4BP2L2 / RFU, ARFIP1 / Fold change vs veh, ARFIP1 / RFU, FAM179B / Fold change vs veh, FAM179B / RFU, BCL10 / Fold change vs veh, BCL10 / RFU, UHRF1BP1L / Fold change vs veh, UHRF1BP1L / RFU, BET1 / Fold change vs veh, BET1 / RFU, CNOT2 / Fold change vs veh, CNOT2 / RFU, ZNF268 / Fold change vs veh, ZNF268 / Fold change vs veh, ZNF507 / RFU, DGCR2 / Fold change vs veh, DGCR2 / RFU, WDSUB1 / Fold change vs veh, WDSUB1 / Fold change vs veh, HSP90B1 /// MIR3652 / RFU, ADSS / Fold change vs veh, ADSS / RFU, GK / Fold change vs veh, GK / RFU, ZNF148 / Fold change vs veh, ZNF148 / RFU, TAF9 / Fold change vs veh, TAF9 / RFU, SLC1A5 / Fold change vs veh, SLC1A5 / RFU, SLMO2 / Fold change vs veh, SLMO2 / RFU, ABCC4 / Fold change vs veh, ABCC4 / RFU, LOC101060439 /// RAP1B / Fold change vs veh, LOC101060439 /// RAP1B / RFU, RFX7 / Fold change vs veh, RFX7 / RFU, GTPBP10 / Fold change vs veh, GTPBP10 / RFU, CNEP1R1 / Fold change vs veh, CNEP1R1 / RFU, BIVM-ERCC5 /// ERCC5 / Fold change vs veh, BIVM-ERCC5 /// ERCC5 / RFU, ILF3 / Fold change vs veh, ILF3 / RFU 11762660_at / Fold change /veh 11762660_at / RFU VCAN (11757783_s_at) / Fold change /veh VCAN (11757783_s_at) / RFU DDX43 (11728927_at) / Fold change /veh DDX43 (11728927_at) / RFU KRT8 (11758188_x_at) / Fold change /veh KRT8 (11758188_x_at) / RFU NKD1 (11759106_at) / Fold change /veh NKD1 (11759106_at) / RFU SRD5A1 (11742802_a_at) / Fold change /veh SRD5A1 (11742802_a_at) / RFU TPSAB1 /// TPSB2 (11721975_s_at) / Fold change /veh TPSAB1 /// TPSB2 (11721975_s_at) / RFU GSTM3 (11746129_a_at) / Fold change /veh GSTM3 (11746129_a_at) / RFU IL23R (11737362_x_at) / Fold change /veh IL23R (11737362_x_at) / RFU TMEM51 (11727254_a_at) / Fold change /veh TMEM51 (11727254_a_at) / RFU PIWIL2 (11732686_x_at) / Fold change /veh PIWIL2 (11732686_x_at) / RFU ORM1 (11744905_x_at) / Fold change /veh ORM1 (11744905_x_at) / RFU CCDC152 (11743942_at) / Fold change /veh CCDC152 (11743942_at) / RFU ECM1 (11717891_a_at) / Fold change /veh ECM1 (11717891_a_at) / RFU IL23R (11748794_a_at) / Fold change /veh IL23R (11748794_a_at) / RFU TNFAIP8L3 (11732012_x_at) / Fold change /veh TNFAIP8L3 (11732012_x_at) / RFU MBOAT4 (11741988_at) / Fold change /veh MBOAT4 (11741988_at) / RFU 11764193_at / Fold change /veh 11764193_at / RFU TMEM53 (11763286_at) / Fold change /veh TMEM53 (11763286_at) / RFU MAGEB2 (11727129_at) / Fold change /veh MAGEB2 (11727129_at) / RFU TMEM200A (11744735_a_at) / Fold change /veh TMEM200A (11744735_a_at) / RFU CCDC152 (11751479_a_at) / Fold change /veh CCDC152 (11751479_a_at) / RFU FAM211A (11726209_a_at) / Fold change /veh FAM211A (11726209_a_at) / RFU RGS16 (11746705_a_at) / Fold change /veh RGS16 (11746705_a_at) / RFU VCAN (11755009_s_at) / Fold change /veh VCAN (11755009_s_at) / RFU RHOB (11743442_s_at) / Fold change /veh RHOB (11743442_s_at) / RFU RGS16 (11720943_a_at) / Fold change /veh RGS16 (11720943_a_at) / RFU RGS16 (11720944_at) / Fold change /veh RGS16 (11720944_at) / RFU, VPS4B / Fold change vs veh, VPS4B / RFU, CREB1 / Fold change vs veh, CREB1 / RFU, DNAJC13 / Fold change vs veh, DNAJC13 / RFU, GNAQ / Fold change vs veh, GNAQ / RFU, CDK5R1 / Fold change vs veh, CDK5R1 / RFU, ZRANB3 / Fold change vs veh, ZRANB3 / RFU, CUL4A / Fold change vs veh, CUL4A / RFU, CCNY / Fold change vs veh, CCNY / RFU, UFL1 / Fold change vs veh, UFL1 / RFU, COG3 / Fold change vs veh, COG3 / RFU, DIAPH2 / Fold change vs veh, DIAPH2 / RFU, SKA2 / Fold change vs veh, SKA2 / RFU, AFF3 / Fold change vs veh, AFF3 / RFU, LMF1 / Fold change vs veh, LMF1 / RFU, IPO11 / Fold change vs veh, IPO11 / RFU, DFFB / Fold change vs veh, DFFB / RFU, FOXP1 / Fold change vs veh, FOXP1 / RFU, CARD8 / Fold change vs veh, CARD8 / RFU, STRN3 / Fold change vs veh, STRN3 / RFU, ADK / Fold change vs veh, ADK / RFU, RASSF2 / Fold change vs veh, RASSF2 / RFU, WIPF1 / Fold change vs veh, WIPF1 / RFU, LARP1B / Fold change vs veh, LARP1B / RFU, RASA1 / Fold change vs veh, RASA1 / RFU, RB1 / Fold change vs veh, RB1 / RFU, PPFIA1 / Fold change vs veh, PPFIA1 / RFU, MAT2A / Fold change vs veh, MAT2A / RFU, CCT5 / Fold change vs veh, CCT5 / RFU, WDR92 / Fold change vs veh, WDR92 / RFU, CUX1 / Fold change vs veh, CUX1 / RFU, TTC7A / Fold change vs veh, TTC7A / RFU, TMEM135 / Fold change vs veh, TMEM135 / RFU, DEPTOR / Fold change vs veh, DEPTOR / RFU, CPM / Fold change vs veh, CPM / RFU, DNAJB6 / Fold change vs veh, DNAJB6 / RFU, CACNA2D3 / Fold change vs veh, CACNA2D3 / RFU, DTX4 / Fold change vs veh, DTX4 / RFU, TFCP2 / Fold change vs veh, TFCP2 / RFU, GMCL1 /// GMCL1P1 / Fold change vs veh, GMCL1 /// GMCL1P1 / RFU, AEBP2 / Fold change vs veh, AEBP2 / RFU, SNHG1 /// SNORD22 /// SNORD25 /// SNORD26 /// SNORD27 /// SNORD28 /// SNORD29 /// SNORD31 / Fold change vs veh, SNHG1 /// SNORD22 /// SNORD25 /// SNORD26 /// SNORD27 /// SNORD28 /// SNORD29 /// SNORD31 / Fold change (Aza/veh), C12orf56 (ProbeSet 11735607_a_at) / Fold change (ACY-1035/veh), C12orf56 (ProbeSet 11735607_a_at) / Fold change (Aza/veh), FGFR1OP (ProbeSet 11751329_s_at) / Fold change (ACY-1035/veh), FGFR1OP (ProbeSet 11751329_s_at) / Fold change (Aza/veh), VPS36 (ProbeSet 11739960_a_at) / Fold change (ACY-1035/veh), VPS36 (ProbeSet 11739960_a_at) / RFU SYPL1 (11715823_x_at) / Fold change /veh SYPL1 (11715823_x_at) / RFU IGFBP7 (11715501_s_at) / Fold change /veh IGFBP7 (11715501_s_at) / RFU REEP3 (11722064_at) / Fold change /veh REEP3 (11722064_at) / RFU IGLL1 (11728026_x_at) / Fold change /veh IGLL1 (11728026_x_at): dose or concentration left out as unconfirmed
Conditions: MV-4-11 cells, 48 hours

Nc1ncn([C@@H]2O[C@H](CO)[C@@H](O)[C@H]2O)c(=O)n1 [azacitidine] was tested. Which “RFU SOX15 (11748057_x_at)” value did it give?
Its value is 12.99 RFU.
